Measurements: publication PMC2948534 (American journal of respiratory cell and molecular biology, 2005)
Ends that are not written are not given here.

Tests used:
A549 epithelial cells = experiment: LDH release; type: cell-based, human; settings: for effect of receptor inhibitor on LL-37-induced LDH release: 1 h pretreatment (pertussis toxin 100 ng/ml; PD1683 2 μM; AG1478 1 μM), then 50 μg/ml LL-37 for 24 h, DMEM without serum
[1] = test system: airway epithelial or monocyte-like cell line; settings: presence of FBS; cited from earlier work

**Q.** What does the source list for CRAMP?
**A.** LDH release effects at >100 μg/ml in the presence of human serum (A549 epithelial cells; 10% human serum, data not shown): similarly suppressed; cell death compared with LL-37 (A549 epithelial cells; A549 cells): induced significantly less cell death than LL-37; concentrations at which no statistically significant LDH release was observed (A549 epithelial cells; data not shown): < 100 µg/mL

**Q.** For “indolicidin: cathelicidin peptide (ILPWKWPWWPWRR; ends and bridges not checked; UniProt P33046 131-143, looked up)”, which “induction of cell death” value [1] is on record?
**A.** The value was “do not induce cell death”.

**Q.** Which “effect of receptor inhibitor on LL-37-induced LDH release” value (“effect of receptor inhibitor” for short) (A549 epithelial cells) does the source give for pertussis toxin here?
**A.** Its value is “No decrease in LDH release”.

**Q.** With `COc1cc2ncnc(Nc3cccc(Cl)c3)c2cc1OC` [AG1478] as the molecule, how does the “effect of receptor inhibitor” value (A549 epithelial cells) read?
**A.** The value was “No decrease in LDH release”.

**Q.** With `C=CC(=O)Nc1ccc2ncnc(Nc3cccc(Br)c3)c2c1` [PD1683] as the molecule, how does the “effect of receptor inhibitor” value (A549 epithelial cells) read?
**A.** The value was “No decrease in LDH release”.
